Where two headings read alike, the source gives them in different places.
System: HT-1080
Assay: Modulatory profiling: Alamar Blue viability, lethal compound cotreated with death modulator (EC50, AUC); as to AUC HT.BHA: reference of the scale not given here; as to AUC HT.EGTA: reference of the scale not given here
Type: cell-based
Design: AUC, modulator HT.3MA / AUC, modulator HT.ALLN / AUC HT.ATA / AUC HT.ActD / AUC HT.BHA / AUC HT.BHT / AUC HT.BocD / AUC HT.CHX / AUC HT.Co2+ / AUC HT.DPQ / AUC HT.EGTA / AUC HT.Lmim / AUC HT.NAD+ / AUC HT.Nec-1 / AUC HT.SP600125 / AUC HT.TLCK / AUC HT.U0126: unit not given beside the values
Details: for AUC HT.ATA: HT-1080, modulator ATA; for AUC HT.ActD: HT-1080, modulator ActD; for AUC HT.BHA: HT-1080, modulator BHA; for AUC HT.BHT: HT-1080, modulator BHT; for AUC HT.BocD: HT-1080, modulator BocD; for AUC HT.CHX: HT-1080, modulator CHX; for AUC HT.Co2+: HT-1080, modulator Co2+; for AUC HT.CspA: HT-1080, modulator CspA; for AUC HT.DPQ: HT-1080, modulator DPQ; for AUC HT.Gd3+: HT-1080, modulator Gd3+; for AUC HT.LNAME: HT-1080, modulator LNAME; for AUC HT.Lmim: HT-1080, modulator Lmim; for AUC HT.NAD+: HT-1080, modulator NAD+; for AUC HT.NMMA: HT-1080, modulator NMMA; for HT.atoc (AUC) / HT.bCarotene (AUC) / HT.deferox (AUC) / HT.digoxin (AUC) / HT.trolox (AUC) / HT.zVAD (AUC) / EC50: HT-1080; for HT.atoc (AUC): modulator atoc; for HT.bCarotene (AUC): modulator bCarotene; for HT.deferox (AUC): modulator deferox; for HT.digoxin (AUC): modulator digoxin; for HT.trolox (AUC): modulator trolox; for HT.zVAD (AUC): modulator zVAD; for AUC, modulator HT.3MA / AUC, modulator HT.ALLN: HT-1080 cells, modulatory profile value (AUC); for AUC, modulator HT.3MA: lethal compound cotreated with modulator 3MA; for AUC, modulator HT.ALLN: lethal compound cotreated with modulator ALLN; for AUC HT.Nec-1: HT-1080, modulator Nec-1; for AUC HT.Pepstatin: HT-1080, modulator Pepstatin; for AUC HT.SP600125: HT-1080, modulator SP600125; for AUC HT.TLCK: HT-1080, modulator TLCK; for AUC HT.U0126: HT-1080, modulator U0126; for EC50: Homo sapiens, HT-1080, 48 h, 48 h

Compound | AUC HT.ATA | AUC HT.ActD | AUC HT.BHA | AUC HT.BHT | AUC HT.BocD | AUC HT.CHX | AUC HT.Co2+ | AUC HT.CspA | AUC HT.DPQ | AUC HT.Gd3+ | AUC HT.LNAME | AUC HT.Lmim | AUC HT.NAD+ | AUC HT.NMMA | HT.atoc (AUC) | HT.bCarotene (AUC) | HT.deferox (AUC) | HT.digoxin (AUC) | HT.trolox (AUC) | HT.zVAD (AUC) | also measured
C[S+]([O-])c1nc(-c2ccc(Br)cc2)cc(-c2ccccc2)c1C#N (centres unmarked) [CIL17] | −0.0157 | −0.03982 | −0.02052 | −0.138 | 0.0313 | 0.06579 | −0.008436 | −0.03354 | −0.02303 | −0.04318 | 0.02242 | −0.0132 | 0.04423 | −0.02639 | 0.145 | −0.005211 | 0.02894 | −0.003189 | 0.004595 | 0.008536 | AUC HT.EGTA (HT-1080, modulator EGTA): 0.001857; AUC, modulator HT.3MA: 0.01558; AUC, modulator HT.ALLN: 0.03631
[N-]=[N+]=[N-].[Na+] [NaN3] | 0.03107 | 0.1197 | −0.04061 | −0.1432 | 0.008996 | 0.04722 | 0.03941 | −0.04777 | −0.00797 | −0.004604 | −0.01351 | −0.07613 | 0.06683 | 0.002822 | −0.031 | 0.00681 | 0.07882 | 0.01948 | −0.001376 | 0.01031 | AUC HT.EGTA (HT-1080, modulator EGTA): −0.002548; AUC HT.Nec-1: −0.02968; AUC HT.Pepstatin: −0.004337; AUC HT.SP600125: −0.004079; AUC HT.TLCK: 0.0226; AUC HT.U0126: 0.02567; AUC, modulator HT.3MA: −0.05719; AUC, modulator HT.ALLN: 0.06335
CCCCNc1c(Cl)cnn(-c2ccccc2)c1=O [CIL36] | 0.05274 | −0.04409 | 0.0054 | −0.1272 | 0.002169 | −0.06645 | 0.02821 | 0.01593 | 0.05193 | −0.04267 | −0.02799 | 0.004214 | −0.06378 | −0.009501 | 0.08942 | −0.005276 | 0.06452 | −0.03557 | 0.002425 | −0.003588 | AUC HT.EGTA (HT-1080, modulator EGTA): −0.01311; AUC, modulator HT.3MA: 0.08327; AUC, modulator HT.ALLN: 0.1422
CC(C)(C)C1CCc2c(sc(NC(=O)CN3CCNCC3)c2C(N)=O)C1 (centres unmarked) [CIL10] | 0.01743 | −0.01865 | −0.02863 | −0.08663 | 0.1385 | 0.05132 | 0.1226 | 0.004872 | 0.004305 | −0.02788 | 0.02616 | −0.02065 | 0.04087 | −0.009286 | 0.1034 | −0.01201 | −0.004319 | 0.01443 | −0.006674 | −0.01286 | AUC HT.EGTA (HT-1080, modulator EGTA): −0.007776; AUC HT.Nec-1: 0.03698; AUC HT.Pepstatin: −0.01087; AUC HT.SP600125: −0.009227; AUC HT.TLCK: −0.001631; AUC HT.U0126: 0.01126; AUC, modulator HT.3MA: −0.01982; AUC, modulator HT.ALLN: 0.1067
O=C1C(Cl)=C(N2CCOCC2)C(=O)C(Cl)=C1N1CCOCC1 [CIL11] | 0.0148 | −0.0343 | −0.01902 | −0.09641 | 0.07911 | 0.007052 | 0.05358 | −0.005498 | 0.003904 | −0.0298 | 0.02954 | −0.034 | 0.02582 | −0.02554 | 0.07926 | −0.01827 | 0.0278 | −0.01376 | −0.02115 | −0.002495 | AUC HT.EGTA (HT-1080, modulator EGTA): 0.004002; AUC HT.Nec-1: 0.01983; AUC HT.Pepstatin: −0.003096; AUC HT.SP600125: −0.02876; AUC HT.TLCK: 0.01902; AUC HT.U0126: 0.06089; AUC, modulator HT.3MA: 0.0001144; AUC, modulator HT.ALLN: 0.01794
O=c1c(Cl)c(Cl)cnn1-c1ccc(Cl)c(C(F)(F)F)c1 [CIL25] | 0.06489 | −0.03585 | −0.01547 | −0.1041 | 0.05183 | −0.01604 | −0.06128 | 0.01073 | 0.02629 | 0.01713 | 0.02663 | 0.01684 | −0.03051 | −0.006639 | 0.04405 | 0.009082 | 0.07763 | −0.007149 | −0.02562 | 0.03342 | AUC HT.EGTA (HT-1080, modulator EGTA): 0.01624; AUC, modulator HT.3MA: 0.01605; AUC, modulator HT.ALLN: −0.0257
Nc1ccccc1NC(=O)c1ccc(CNC(=O)OCc2cccnc2)cc1 [MS275] | 0.0212 | −0.1982 | −0.04868 | −0.1794 | 0.02448 | −0.1189 | −0.1027 | −0.1886 | −0.01058 | −0.01027 | 0.004204 | −0.09728 | 0.0008794 | −0.00333 | −0.01016 | −0.03005 | −0.1653 | −0.1793 | −0.02599 | 0.0222 | AUC HT.EGTA: −0.005811; AUC HT.Nec-1: −0.05557; AUC HT.Pepstatin: −0.01654; AUC HT.SP600125: −0.09903; AUC HT.TLCK: −0.02404; AUC HT.U0126: −0.01884; AUC, modulator HT.3MA: −0.09204; AUC, modulator HT.ALLN: −0.1325
CCc1ccc(/C=C2/SC(=O)N(CCC(C)NCCCN3CCOCC3)C2=O)cc1 (centres unmarked) [CIL46] | 0.0162 | −0.02916 | −0.1015 | −0.1471 | −0.04371 | −0.01909 | −0.1082 | 0.0003356 | −0.001692 | −0.008617 | −0.02805 | −0.03166 | −0.06754 | 0.001557 | 0.04736 | −0.01026 | 0.03467 | −0.04671 | −0.0145 | 0.01724 | AUC HT.EGTA (HT-1080, modulator EGTA): −0.01699; AUC, modulator HT.3MA: 0.08624; AUC, modulator HT.ALLN: 0.03767
O=C(CCl)N(c1ccccc1)c1c[nH]c2ccccc12 [CIL69] | −0.005358 | −0.004265 | 0.2489 | 0.2227 | −0.03457 | 0.03395 | 0.07132 | 0.009848 | −0.006588 | −0.01446 | −0.04538 | 0.1792 | 0.03637 | −0.04048 | 0.3456 | −0.0167 | 0.3005 | −0.0261 | 0.2631 | −0.0004734 | AUC HT.EGTA (HT-1080, modulator EGTA): 0.06032; effect of ferroptosis inhibitors (iron chelators and lipophilic antioxidants) on lethality in modulatory profiling (HT-1080 and BJeLR): suppression by canonical ferroptosis inhibitors; EC50 (DMSO): 0.551 µM; EC50 (cotreated with MEK inh U0126): 5.75 µM; EC50 (cotreated with antioxidant Atoc): 6.13 µM; EC50 (cotreated with antioxidant BHA): 4.79 µM; EC50 (cotreated with antioxidant BHT): 3.28 µM; EC50 (cotreated with antioxidant Trolox): 4.26 µM; EC50 (cotreated with iron-chelator Deferoxamine): 9.29 µM; EC50 (cotreated with iron-chelator Lmim): 4.79 µM
CC(/C=C/C(=O)NO)=C\[C@@H](C)C(=O)c1ccc(N(C)C)cc1 [TrichostatinA] | −0.0004817 | −0.1678 | −0.06956 | −0.1352 | 0.04109 | −0.09696 | −0.02771 | −0.1437 | −0.001553 | −0.003398 | 0.003502 | −0.05021 | 0.03432 | 0.004335 | −0.005062 | −0.03472 | −0.1597 | −0.1261 | −0.03382 | 0.04012 | AUC HT.EGTA (HT-1080, modulator EGTA): −0.01711; AUC HT.Nec-1: −0.07289; AUC HT.Pepstatin: −0.003985; AUC HT.SP600125: −0.06865; AUC HT.TLCK: −0.02599; AUC HT.U0126: −0.06468; AUC, modulator HT.3MA: −0.1241; AUC, modulator HT.ALLN: −0.1481
COc1cccc2c1C(=O)c1c(O)c3c(c(O)c1C2=O)C[C@@](O)(C(C)=O)C[C@@H]3O[C@H]1C[C@H](N)[C@H](O)[C@H](C)O1 [Daunorubicin] | −0.00186 | 0.01442 | 0.0107 | −0.05609 | 0.0522 | 0.05854 | 0.1614 | −0.0792 | 0.008882 | 0.01529 | −0.009852 | 0.06112 | 0.1305 | 0.0183 | 0.009895 | 0.008265 | 0.1515 | 0.1398 | −0.002722 | 0.04455 | AUC HT.EGTA: 0.03262; AUC HT.Nec-1: 0.02174; AUC HT.Pepstatin: 0.005649; AUC HT.SP600125: −0.0113; AUC HT.TLCK: 0.06429; AUC HT.U0126: −0.0159; AUC, modulator HT.3MA: 0.02823; AUC, modulator HT.ALLN: 0.008692

Source: patent publication US10947188B2, “Small molecule ferroptosis inducers” (THE TRUSTEES OF COLUMBIA UNIVERSITY IN THE CITY OF NEW YORK, priority 2016, dated 2021)
